Test results from US20020165130A1, “Method of sensitizing microbial cells to antimicrobial compounds” (priority 1998, published 2002).
Entries after “also recorded” stand apart in the source; their conditions may differ. Like-named read-outs stand apart in the source and are kept apart here.

Legend:
Type in all cases: cell-based
[1] = system: Staphylococcus aureus ATCC 6538; test: Antibiotic disc assay (zones of inhibition), S. aureus; conditions: for sensitization to six different antibiotics: disc diffusion, 0.5-2 mM sesquiterpenoid; for zone size, ciprofloxacin 5 μg disc: terpenoid at 0.5 mM in agar overlay
Method: (§1) Erwinia sp. #351 was from Presque Isle Cultures, Presque Isle, Pa. Lactobacillus fermentum ATCC 14931, zygosaccharomyces bailii ATCC 60483 and E. coli ATCC 25922 (National Committee on Clinical Laboratory Standards antibiotic test strain) were from the American Type Culture Collection, Manassas, Va. Staphylococcus aureus ATCC 6538 and Enterococcus faecalis Bact. 4025 were obtained from the UW-Madison Department of Bacteriology culture collection. All bacteria except for L. fermentum were grown statically in screwcap tubes containing 10 ml Trypticase Soy Broth (BBL, Cockeysville, Md.) for 20-22 hours at 30° C. L. fermentum was grown statically in screwcap tubes containing 10 ml MRS broth (Difco) for 20-22 hours at 30° C. Cultures of Z. bailii were grown in 125 ml culture flasks containing 50 ml YM broth (Difco) on a rotary shaker set at 200 rpm for 20-22 hours at 25° C.
(§2) The activity of terpenoid compounds toward facilitating susceptibility to antibiotics was assessed using an antibiotic disc assay. For this assay, cells from an overnight growth were suspended to a known concentration in 0.5 ml 67 mM phosphate buffer, pH 7.0 and mixed with 4.5 ml 0.7% Iso-Sensitest agar (Oxoid, Basingstoke, Hampshire, England) overlay tempered to 50° C. Terpenoid compounds dissolved in absolute ethanol were added to the cell/agar overlay mixture yielding final concentrations of 0.5, 1.0 or 2.0 mM, depending on the experiment. The final concentration of ethanol in cell overlays was 0.5% and the final concentration of target cells was ca. 10^6 cfu/ml. After thorough vortexing, terpenoid-containing cell overlays were poured over hardened Iso-Sensitest agar (2% agar) plates and allowed to set. […] After incubation, zones of inhibition were measured with a ruler from the bottom of the plates.

[2] = system: zygosaccharomyces bailii ATCC 60483; test: Flow cytometry, uptake of ethidium bromide by Z. bailii; conditions: 0.5 mM sesquiterpenoid, 15 μM ethidium bromide, 40 minutes
Method: (§3) Erwinia sp. #351 was from Presque Isle Cultures, Presque Isle, Pa. Lactobacillus fermentum ATCC 14931, zygosaccharomyces bailii ATCC 60483 and E. coli ATCC 25922 (National Committee on Clinical Laboratory Standards antibiotic test strain) were from the American Type Culture Collection, Manassas, Va. Staphylococcus aureus ATCC 6538 and Enterococcus faecalis Bact. 4025 were obtained from the UW-Madison Department of Bacteriology culture collection. All bacteria except for L. fermentum were grown statically in screwcap tubes containing 10 ml Trypticase Soy Broth (BBL, Cockeysville, Md.) for 20-22 hours at 30° C. L. fermentum was grown statically in screwcap tubes containing 10 ml MRS broth (Difco) for 20-22 hours at 30° C. Cultures of Z. bailii were grown in 125 ml culture flasks containing 50 ml YM broth (Difco) on a rotary shaker set at 200 rpm for 20-22 hours at 25° C. For experiments involving flow cytometry, overnight cultures of Erwinia sp., L. fermentum and Z. bailli were set to a concentration of ca. 10^7 cfu/ml in 67 mM phosphate buffer, pH 7.0 (filtered, 0.2 μm). For the examination of sesquiterpenoids, cell suspensions containing either 0.5% ethanol and 15 μM ethidium bromide or 0.5 mM apritone, bisabolol, nerolidol or farnesol dissolved in ethanol (0.5% ethanol, final concentration) and 15 μM ethidium bromide were incubated for 40 minutes at room temperature. After incubation, cell suspensions were diluted 1:10 in 67 mM phosphate buffer, pH 7.0 (filtered, 0.2 μm) and examined using a FACScan flow cytometer (Becton Dickinson and Company, Cockeysville, Md.). Data were collected in logarithmic mode on forward scatter, side scatter and fluorescence characteristics of the cells.

[3] = system: Enterococcus faecalis Bact. 4025; conditions: E. faecalis; for degree of sensitization to antibiotics: disc diffusion
Method: as §1, §2

[4] = system: Lactobacillus fermentum ATCC 14931; test: Flow cytometry, uptake of ethidium bromide by L. fermentum; conditions: 0.5 mM sesquiterpenoid, 15 μM ethidium bromide, 40 minutes
Method: as §3

[5] = antibiotic disc with 0.5 mM apritone (A) in agar overlay
[6] = antibiotic disc with 0.5 mM bisabolol (B) in agar overlay
[7] = antibiotic disc with 0.5 mM nerolidol (N) in agar overlay
[8] = antibiotic disc with 1 mM apritone (A) in agar overlay
[9] = antibiotic disc with 1 mM bisabolol (B) in agar overlay
[10] = antibiotic disc with 1 mM nerolidol (N) in agar overlay
[11] = antibiotic disc with 2 mM apritone (A) in agar overlay
[12] = antibiotic disc with 2 mM bisabolol (B) in agar overlay
[13] = antibiotic disc with 2 mM nerolidol (N) in agar overlay
[14] = antibiotic disc, control (no sesquiterpenoid in agar overlay)
[15] = antibiotic disc, control (no sesquiterpenoid)

## CC(C)=CCC/C(C)=C/CC1CCCC1=O (stereo not drawn) [apritone]
[1]; 0.5 mM terpenoid, ciprofloxacin 5 μg disc
  ability to sensitize S. aureus to ciprofloxacin: least effective
[1]
  sensitization to six different antibiotics: readily sensitized
[1]; ciprofloxacin 5 μg disc
  zone size, ciprofloxacin 5 μg disc: 24 mm
[2]
  uptake of ethidium bromide (fluorescence, chromosomal staining): greatest degree of chromosomal staining; also recorded: became more fluorescent
[3]; 1 mM sesquiterpenoid
  degree of sensitization to antibiotics: only a modest degree of sensitization
[4]
  uptake of ethidium bromide (ethidium-conferred fluorescence): facilitated the uptake of ethidium bromide

## CC(C)=CCC[C@](C)(O)C1CC=C(C)CC1 (stereo partly drawn) [bisabolol]
[1]
  sensitization to six different antibiotics: readily sensitized
[1]; ciprofloxacin 5 μg disc
  zone size, ciprofloxacin 5 μg disc: 25 mm
[2]
  uptake of ethidium bromide (fluorescence, chromosomal staining): became more fluorescent
[3]; clindamycin 2 μg disc, 1 mM sesquiterpenoid
  zones smaller than control plates by: 1 mm
[3]; 1 mM sesquiterpenoid
  degree of sensitization to antibiotics: only a modest degree of sensitization
[4]
  uptake of ethidium bromide (ethidium-conferred fluorescence): facilitated the uptake of ethidium bromide

## C=C1C2CCC(C2)C1(C)C (stereo not drawn) [camphene]
[1]; ciprofloxacin 5 μg disc
  zone size, ciprofloxacin 5 μg disc: 22 mm

## CC12CCC(CC1)C(C)(C)O2 [cineole]
[1]; ciprofloxacin 5 μg disc
  zone size, ciprofloxacin 5 μg disc: 23 mm

## CC(C)=CCCC(C)=CC=O [citral]
[1]; ciprofloxacin 5 μg disc
  zone size, ciprofloxacin 5 μg disc: 22 mm

## CC(C)=CCCC(C)CC=O (stereo not drawn) [citronellal]
[1]; ciprofloxacin 5 μg disc
  zone size, ciprofloxacin 5 μg disc: 22 mm

## CC(C)=CCCC(C)CCO (stereo not drawn) [citronellol]
[1]; ciprofloxacin 5 μg disc
  zone size, ciprofloxacin 5 μg disc: 22.5 mm

## CCC[C@@H]1C[C@@H](C(=O)N[C@@H]([C@H]2O[C@H](SC)[C@H](O)[C@@H](O)[C@H]2O)[C@H](C)Cl)N(C)C1 [clindamycin]
[1]; [5]
  Diameters of zones of inhibition: 22 millimeters
[1]; [6]
  Diameters of zones of inhibition: 24.5 millimeters
[1]; [7]
  Diameters of zones of inhibition: 23.5 millimeters
[1]; [8]
  Diameters of zones of inhibition: 25 millimeters
[1]; [9]
  Diameters of zones of inhibition: 27 millimeters
[1]; [10]
  Diameters of zones of inhibition: 31.5 millimeters
[1]; [11]
  Diameters of zones of inhibition: 27.5 millimeters
[1]; [12]
  Diameters of zones of inhibition: 32 millimeters
[1]; [13]
  Diameters of zones of inhibition: 35.5 millimeters
[1]; [14]
  Diameters of zones of inhibition: 22 millimeters
[3]; [8]
  Diameters of zones of inhibition: 12 millimeters
[3]; [9]
  Diameters of zones of inhibition: 11 millimeters
[3]; [10]
  Diameters of zones of inhibition: 11 millimeters
[3]; [15]
  Diameters of zones of inhibition: 12 millimeters

## CC[C@H]1OC(=O)[C@H](C)[C@@H](O[C@H]2C[C@@](C)(OC)[C@@H](O)[C@H](C)O2)[C@H](C)[C@@H](O[C@@H]2O[C@H](C)C[C@H](N(C)C)[C@H]2O)[C@](C)(O)C[C@@H](C)C(=O)[C@H](C)[C@@H](O)[C@]1(C)O [erythromycin]
[1]; [5]
  Diameters of zones of inhibition: 26 millimeters
[1]; [6]
  Diameters of zones of inhibition: 26 millimeters
[1]; [7]
  Diameters of zones of inhibition: 27 millimeters
[1]; [8]
  Diameters of zones of inhibition: 25 millimeters
[1]; [9]
  Diameters of zones of inhibition: 29 millimeters
[1]; [10]
  Diameters of zones of inhibition: 29.5 millimeters
[1]; [11]
  Diameters of zones of inhibition: 26.5 millimeters
[1]; [12]
  Diameters of zones of inhibition: 30 millimeters
[1]; [13]
  Diameters of zones of inhibition: 33 millimeters
[1]; [14]
  Diameters of zones of inhibition: 24 millimeters
[3]; [8]
  Diameters of zones of inhibition: 18 millimeters
[3]; [9]
  Diameters of zones of inhibition: 19 millimeters
[3]; [10]
  Diameters of zones of inhibition: 19.5 millimeters
[3]; [15]
  Diameters of zones of inhibition: 18.5 millimeters

## CC(C)=CCCC(C)=CCCC(C)=CCO [farnesol]
[1]; all concentrations used (0.5, 1, 2 mM)
  inhibitory by itself in disc assay overlay: inhibitory
[2]
  uptake of ethidium bromide (fluorescence, chromosomal staining): became more fluorescent
[3]; 1 mM
  inhibitory by itself in disc assay overlay: inhibitory
[4]
  uptake of ethidium bromide (ethidium-conferred fluorescence): facilitated the uptake of ethidium bromide
[4]; listed as Farnesol
  uptake of ethidium bromide (ethidium-conferred fluorescence): highest ethidium-conferred fluorescence peak

## CC(C)=CCC/C(C)=C/CO [geraniol]
[1]; ciprofloxacin 5 μg disc
  zone size, ciprofloxacin 5 μg disc: 23 mm

## C=C(C)[C@H]1CC=C(C)CC1 [limonene]
[1]; ciprofloxacin 5 μg disc
  zone size, ciprofloxacin 5 μg disc: 22 mm

## C=CC(C)(O)CCC=C(C)C (stereo not drawn) [linalool]
[1]; ciprofloxacin 5 μg disc
  zone size, ciprofloxacin 5 μg disc: 22.5 mm

## CC(C)[C@@H]1CC[C@@H](C)CC1=O [menthone]
[1]; ciprofloxacin 5 μg disc
  zone size, ciprofloxacin 5 μg disc: 23 mm

## C=CC(=C)CCC=C(C)C [myrcene]
[1]; ciprofloxacin 5 μg disc
  zone size, ciprofloxacin 5 μg disc: 21.5 mm

## CC(C)=CCC/C(C)=C\CO [nerol]
[1]; ciprofloxacin 5 μg disc
  zone size, ciprofloxacin 5 μg disc: 22 mm

## CN(C)[C@@H]1C(O)=C(C(N)=O)C(=O)[C@@]2(O)C(O)=C3C(=O)c4c(O)cccc4[C@@](C)(O)[C@H]3C[C@@H]12 [tetracycline]
[1]; [5]
  Diameters of zones of inhibition: 25.5 millimeters
[1]; [6]
  Diameters of zones of inhibition: 25 millimeters
[1]; [7]
  Diameters of zones of inhibition: 25.5 millimeters
[1]; [8]
  Diameters of zones of inhibition: 26 millimeters
[1]; [9]
  Diameters of zones of inhibition: 26 millimeters
[1]; [10]
  Diameters of zones of inhibition: 26.5 millimeters
[1]; [11]
  Diameters of zones of inhibition: 27.5 millimeters
[1]; [12]
  Diameters of zones of inhibition: 30 millimeters
[1]; [13]
  Diameters of zones of inhibition: 32.5 millimeters
[1]; [14]
  Diameters of zones of inhibition: 21.5 millimeters
[3]; [8]
  Diameters of zones of inhibition: 22.5 millimeters
[3]; [9]
  Diameters of zones of inhibition: 24 millimeters
[3]; [10]
  Diameters of zones of inhibition: 23.5 millimeters
[3]; [15]
  Diameters of zones of inhibition: 22 millimeters

## CC(C)CCCC(C)CCO (stereo not drawn) [tetrahydrogeraniol]
[1]; ciprofloxacin 5 μg disc
  zone size, ciprofloxacin 5 μg disc: 22.5 mm

## CCC(C)(O)CCCC(C)C (stereo not drawn) [tetrahydrolinalool]
[1]; ciprofloxacin 5 μg disc
  zone size, ciprofloxacin 5 μg disc: 23 mm

## CN[C@H](CC(C)C)C(=O)N[C@H]1C(=O)N[C@@H](CC(N)=O)C(=O)N[C@H]2C(=O)N[C@H]3C(=O)N[C@H](C(=O)N[C@H](C(=O)O)c4cc(O)cc(O)c4-c4cc3ccc4O)[C@H](O)c3ccc(c(Cl)c3)Oc3cc2cc(c3O[C@@H]2O[C@H](CO)[C@@H](O)[C@H](O)[C@H]2O[C@H]2C[C@](C)(N)[C@H](O)[C@H](C)O2)Oc2ccc(cc2Cl)[C@H]1O [vancomycin]
[1]; [5]
  Diameters of zones of inhibition: 19 millimeters
[1]; [6]
  Diameters of zones of inhibition: 20 millimeters
[1]; [7]
  Diameters of zones of inhibition: 20 millimeters
[1]; [8]
  Diameters of zones of inhibition: 18 millimeters
[1]; [9]
  Diameters of zones of inhibition: 19 millimeters
[1]; [10]
  Diameters of zones of inhibition: 23.5 millimeters
[1]; [11]
  Diameters of zones of inhibition: 20 millimeters
[1]; [12]
  Diameters of zones of inhibition: 21 millimeters
[1]; [13]
  Diameters of zones of inhibition: 25 millimeters
[1]; [14]
  Diameters of zones of inhibition: 18 millimeters
[3]; [8]
  Diameters of zones of inhibition: 17 millimeters
[3]; [9]
  Diameters of zones of inhibition: 18 millimeters
[3]; [10]
  Diameters of zones of inhibition: 18 millimeters
[3]; [15]
  Diameters of zones of inhibition: 17 millimeters

## CC1=CC=C(C(C)C)CC1 [α-terpinene]
[1]; ciprofloxacin 5 μg disc
  zone size, ciprofloxacin 5 μg disc: 22 mm

## gentamicin
[1]; [5]
  Diameters of zones of inhibition: 20 millimeters
[1]; [6]
  Diameters of zones of inhibition: 22 millimeters
[1]; [7]
  Diameters of zones of inhibition: 24 millimeters
[1]; [8]
  Diameters of zones of inhibition: 21 millimeters
[1]; [10]
  Diameters of zones of inhibition: 26 millimeters
[1]; [11]
  Diameters of zones of inhibition: 23 millimeters
[1]; [12]
  Diameters of zones of inhibition: 29 millimeters
[1]; [13]
  Diameters of zones of inhibition: 35 millimeters
[1]; [14]
  Diameters of zones of inhibition: 18.5 millimeters
[3]; [8]
  Diameters of zones of inhibition: 11 millimeters
[3]; [10]
  Diameters of zones of inhibition: 17.5 millimeters
[3]; [15]
  Diameters of zones of inhibition: 9 millimeters
